Data on 19 molecules can be found in PMC10401645 (ACS Chemical Neuroscience, 2023).

Like-named read-outs stand apart in the source and are kept apart here.

Assay [1] has as its target T1, 5-HT2A (Homo sapiens, UniProt P28223). Description: NanoBiT βarr2 recruitment assay at 5-HT2A. Particulars: 2 h AUC; for EC50: β-arrestin2 EC50 (nM) (95% CI).
Target sequence in this assay (P28223 whole entry): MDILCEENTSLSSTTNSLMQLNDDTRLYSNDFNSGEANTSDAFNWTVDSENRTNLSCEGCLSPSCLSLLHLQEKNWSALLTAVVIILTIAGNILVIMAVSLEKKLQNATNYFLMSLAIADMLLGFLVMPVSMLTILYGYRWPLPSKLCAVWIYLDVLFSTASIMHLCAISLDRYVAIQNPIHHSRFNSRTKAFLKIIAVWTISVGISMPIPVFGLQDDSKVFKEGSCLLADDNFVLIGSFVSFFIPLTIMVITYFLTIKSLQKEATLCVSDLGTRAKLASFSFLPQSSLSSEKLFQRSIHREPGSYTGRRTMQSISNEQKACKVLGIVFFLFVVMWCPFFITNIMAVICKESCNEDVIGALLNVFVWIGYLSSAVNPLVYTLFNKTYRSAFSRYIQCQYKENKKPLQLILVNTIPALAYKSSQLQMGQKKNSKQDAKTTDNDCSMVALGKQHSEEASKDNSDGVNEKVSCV
Target sequence in this assay (P32121 whole entry partner): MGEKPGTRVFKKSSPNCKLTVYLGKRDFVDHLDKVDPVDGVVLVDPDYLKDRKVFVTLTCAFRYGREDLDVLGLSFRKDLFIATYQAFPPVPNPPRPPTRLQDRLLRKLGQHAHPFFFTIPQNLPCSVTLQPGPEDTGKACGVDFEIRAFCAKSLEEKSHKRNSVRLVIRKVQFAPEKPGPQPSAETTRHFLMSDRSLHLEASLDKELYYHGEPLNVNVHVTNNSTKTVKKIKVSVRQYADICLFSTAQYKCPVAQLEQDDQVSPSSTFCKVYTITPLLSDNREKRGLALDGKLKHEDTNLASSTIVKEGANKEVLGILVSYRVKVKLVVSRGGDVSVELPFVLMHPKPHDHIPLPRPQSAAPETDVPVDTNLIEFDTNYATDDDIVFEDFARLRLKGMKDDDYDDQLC
The target in assay [2] is T1, 5-HT2A. Description: NanoBiT miniGαq recruitment assay at 5-HT2A. The following applies: 2 h AUC; for EC50: LSD as reference agonist.
Target sequence in this assay (P28223 whole entry): as the sequence (P28223 whole entry) above
For a further assay, the system named is 5-HT2A receptor. Kind of assay: Bias factor. Particulars: LSD as reference agonist, 2 h AUC; positive = βarr2 preference.
Assay [3] deals with T1, 5-HT2A. Particulars: PI hydrolysis assay; cited from earlier work.
Target sequence in this assay (P28223 whole entry, species assumed): as the sequence (P28223 whole entry) above
Target sequence in this assay (P32121 whole entry partner, species assumed): as the sequence (P32121 whole entry partner) above

One may read the EC50 as the concentration that produces a half-maximal response.

For the molecule `CCOCc1cc(OC)c(CCN)cc1OC.Cl` [1d, 2-(4-(Ethoxymethyl)-2,5-dimethoxyphenyl)ethan-1-amine Hydrochloride], the results for the EC50 at 5-HT2A [1] (LSD as reference agonist) and at 5-HT2A [2] (miniGαq EC50 (nM) (95% CI)) were 26.4 nM and 75 nM, respectively. In the assay with 5-HT2A receptor, the “β (bias factor)” value was 0.323.

On to `COc1cc(CCN)c(OC)cc1C#N.Cl` [2C-CN (1j), 4-(2-Aminoethyl)-2,5-dimethoxybenzonitrile Hydrochloride], for which the concentration giving a half-maximal response (EC50) on 5-HT2A [1] (LSD as reference agonist) turned out to be 174 nM; at 5-HT2A [2] (miniGαq EC50 (nM) (95% CI)), 503 nM. Also, the “β (bias factor)” value in the assay on 5-HT2A receptor is reported as 0.412.

As to `COc1cc(CCN)c(OC)cc1C.Cl` [2C-D (1b), 2-(2,5-Dimethoxy-4-methylphenyl)ethan-1-amine Hydrochloride], the results for the EC50 on 5-HT2A [1] (LSD as reference agonist) and at 5-HT2A [2] (miniGαq EC50 (nM) (95% CI)) were 16.4 nM and 59.4 nM, respectively. In the assay with 5-HT2A receptor, the “β (bias factor)” value came to 0.372.

Regarding `COc1cc([N+](=O)[O-])c(OC)cc1CCN.Cl` [2C-N (1g), 2-(2,5-Dimethoxy-4-nitrophenyl)ethan-1-amine Hydrochloride], the EC50 at 5-HT2A [1] (LSD as reference agonist) came to 32.2 nM; on 5-HT2A [2] (miniGαq EC50 (nM) (95% CI)) it was 92.5 nM. In addition, in the assay with 5-HT2A receptor, the “β (bias factor)” value is recorded as 0.305.

On to `CCCc1cc(OC)c(CCN)cc1OC.Cl` [2C-P (1c), 2-(2,5-Dimethoxy-4-propylphenyl)ethan-1-amine Hydrochloride], for which the EC50 at 5-HT2A [1] (LSD as reference agonist) is 10.2 nM; at 5-HT2A [2] (miniGαq EC50 (nM) (95% CI)) it was 37.6 nM; on 5-HT2A [2] (miniGαq pEC50 (95% CI)) it was 37.2 nM. The “β (bias factor)” value in the assay with 5-HT2A receptor worked out at 0.313.

Consider `COc1cc(SC)c(OC)cc1CCN.Cl` [2C-T (1e), 2-(2,5-Dimethoxy-4-(methylthio)phenyl)ethan-1-amine Hydrochloride], for which the values for the EC50 at 5-HT2A [1] (LSD as reference agonist) and on 5-HT2A [2] (miniGαq EC50 (nM) (95% CI)) were 13.1 nM and 37.1 nM, respectively. In the assay on 5-HT2A receptor, the “β (bias factor)” value worked out at 0.343.

`CCCSc1cc(OC)c(CCN)cc1OC.Cl` [2C-T-7 (1f), 2-(2,5-Dimethoxy-4-(propylthio)phenyl)ethan-1-amine Hydrochloride]: the EC50 at 5-HT2A [1] (LSD as reference agonist) was 4.99 nM; on 5-HT2A [2] (miniGαq EC50 (nM) (95% CI)), 14.3 nM; on 5-HT2A [2] (miniGαq pEC50 (95% CI)), 14.1 nM. In addition, the “β (bias factor)” value in the assay with 5-HT2A receptor turned out to be 0.291.

Take `NCCc1c[nH]c2ccc(O)cc12` [5-HT, 5-hydroxytryptamine, reference compound]: the “β (bias factor)” value in the assay on 5-HT2A receptor was found to be 0.680.

`COc1cc([N+](=O)[O-])c(OC)cc1CCNCc1ccccc1F.Cl` [25N-NBF (2g), 2-(2,5-Dimethoxy-4-nitrophenyl)-N-(2-fluorobenzyl)ethan-1-amine Hydrochloride]: the values for the EC50 on 5-HT2A [1] (LSD as reference agonist) and on 5-HT2A [2] (miniGαq EC50 (nM) (95% CI)) were 14.2 nM and 74.7 nM, respectively. The “β (bias factor)” value in the assay on 5-HT2A receptor came to 0.858.

Regarding `COc1cc([N+](=O)[O-])c(OC)cc1CCNCc1cccc2c1OCO2.Cl` [25N-NBMD (2h), N-(Benzo[d][1,3]dioxol-4-ylmethyl)-2-(2,5-dimethoxy-4-nitrophenyl)ethan-1-amine Hydrochloride], the EC50 stood at 2 nM at 5-HT2A [1] (LSD as reference agonist) and 9.32 nM at 5-HT2A [2] (miniGαq EC50 (nM) (95% CI)). Besides, the “β (bias factor)” value in the assay with 5-HT2A receptor is reported as 0.791.

In the case of `COc1cc([N+](=O)[O-])c(OC)cc1CCNCc1ccccc1O.Cl` [25N-NBOH (2e), 2-(((2,5-Dimethoxy-4-nitrophenethyl)amino)methyl)phenol Hydrochloride], on 5-HT2A [1] (LSD as reference agonist), the “β-arrestin2 EC50 (nM) (95% CI)” value is listed as “sub-nanomolar” and the half-maximal effective concentration (EC50) was determined as 0.662 nM. On 5-HT2A [2] (miniGαq EC50 (nM) (95% CI)), this molecule displayed an EC50 of 1.73 nM. Further, the “β (bias factor)” value in the assay on 5-HT2A receptor turned out to be 0.454.

On to `COc1cc([N+](=O)[O-])c(OC)cc1CCNCc1ccccc1OC.Cl` [25N-NBOMe (2f), 2-(2,5-Dimethoxy-4-nitrophenyl)-N-(2-methoxybenzyl)ethan-1-amine Hydrochloride], for which the results for the EC50 entry at 5-HT2A [3], at 5-HT2A [1] (LSD as reference agonist) and at 5-HT2A [2] (miniGαq EC50 (nM) (95% CI)) were “sub-nanomolar”, 1.09 nM and 2.53 nM, respectively. Further, the “β (bias factor)” value in the assay on 5-HT2A receptor was 0.374.

Turning to `CCCSc1cc(OC)c(CCNCc2ccccc2O)cc1OC.Cl` [25T7-NBOH (2c), 2-(((2,5-Dimethoxy-4-(propylthio)phenethyl)amino)methyl)phenol Hydrochloride], the EC50 at 5-HT2A [1] (LSD as reference agonist) is 13.9 nM; on 5-HT2A [2] (miniGαq EC50 (nM) (95% CI)) it was 17.5 nM. Also, the “β (bias factor)” value in the assay on 5-HT2A receptor stood at 0.209.

Take `CCCSc1cc(OC)c(CCNCc2ccccc2OC)cc1OC.Cl` [25T7-NBOMe (2d), 2-(2,5-Dimethoxy-4-(propylthio)phenyl)-N-(2-methoxybenzyl)ethan-1-amine Hydrochloride]: the EC50 was 7.42 nM at 5-HT2A [1] (LSD as reference agonist) and 11.3 nM on 5-HT2A [2] (miniGαq EC50 (nM) (95% CI)). In the assay with 5-HT2A receptor, the “β (bias factor)” value amounted to 0.281.

With `COc1cc(SC)c(OC)cc1CCNCc1ccccc1O.Cl` [25T-NBOH (2a), 2-(((2,5-Dimethoxy-4-(methylthio)phenethyl)amino)methyl)phenol Hydrochloride], the EC50 at 5-HT2A [1] (LSD as reference agonist) is 1.94 nM; on 5-HT2A [2] (miniGαq EC50 (nM) (95% CI)), 4.45 nM. Moreover, the “β (bias factor)” value in the assay with 5-HT2A receptor is 0.447.

Consider `COc1cc(SC)c(OC)cc1CCNCc1ccccc1OC.Cl` [25T-NBOMe (2b), 2-(2,5-Dimethoxy-4-(methylthio)phenyl)-N-(2-methoxybenzyl)ethan-1-amine Hydrochloride], for which the EC50 worked out at 2.05 nM on 5-HT2A [1] (LSD as reference agonist) and 4.22 nM on 5-HT2A [2] (miniGαq EC50 (nM) (95% CI)). Also, the “β (bias factor)” value in the assay with 5-HT2A receptor amounted to 0.332.

Regarding `COc1cc(SC)c(OC)cc1CC(C)N.Cl` (centres unmarked) [DOT (1h), 1-(2,5-Dimethoxy-4-(methylthio)phenyl)propan-2-amine Hydrochloride], the EC50 on 5-HT2A [1] (LSD as reference agonist) worked out at 14.5 nM; on 5-HT2A [2] (miniGαq EC50 (nM) (95% CI)), 65.8 nM. The “β (bias factor)” value with 5-HT2A receptor was 0.436.

In the case of `CCCSc1cc(OC)c(CC(C)N)cc1OC.Cl` (centres unmarked) [DOT-7 (1i), 1-(2,5-Dimethoxy-4-(propylthio)phenyl)propan-2-amine Hydrochloride], the results for the EC50 at 5-HT2A [1] (LSD as reference agonist) and on 5-HT2A [2] (miniGαq EC50 (nM) (95% CI)) were 2.18 nM and 7.63 nM, respectively. In addition, the “β (bias factor)” value in the assay with 5-HT2A receptor was determined as 0.305.

In the case of `CCN(CC)C(=O)[C@@H]1C=C2c3cccc4[nH]cc(c34)C[C@H]2N(C)C1` [LSD, lysergic acid diethylamide, reference compound], the “β-arrestin2 Emax (%) (95% CI)” value at 5-HT2A [1] (normalized to Emax of LSD) was 99.4 (92.5–106) %. The “miniGαq Emax (%) (95% CI)” value on 5-HT2A [2] (normalized to Emax of LSD) was 98.4 (90.4–107) %. Also, the “β (bias factor)” value with 5-HT2A receptor stood at 0.
